Literature values in US12017989B2, “Controlled release pharmaceutical formulations” (United Therapeutics Corporation, priority 2013, dated 2024).

Conditions: continuous subcutaneous infusion using a pump; Wade et al., J Clin Pharmacol 2004

CCCCC[C@H](O)CC[C@@H]1[C@H]2Cc3cccc(OCC(=O)O)c3C[C@H]2C[C@H]1O [treprostinil]
peak-to-trough variation of concentration profile: 20-30%
